# Source: patent publication US9598361B1, “Amino substituted acetamide derivative” (KING SAUD UNIVERSITY, priority 2016, dated 2017)
# Read-outs that look alike come from different tables or passages of the source.
# How the values were obtained:
# [1] = test system: liver and kidney functions; test: Effect on liver and kidney functions; format: in vivo, Male Wister rats
# Protocol: The effect on liver and kidney functions using the derivatives were investigated as follows. Male Wister rats were divided into 2 groups, each of 10 rats. The 1st group was left as a control and administered the vehicle orally, while the other group was orally administered the synthesized compounds in a dose of 50 mg/kg (for CP 1-7) or a dose of about 100 mg/kg (for CP 8). After the examination period, 6 h after the last dose blood samples were collected from the orbital plexus of rats. Samples were left to clot at room temperature for 30 min then centrifuged at 1000 rpm for 20 min.
# The collected sera were used for determination of the activity of both (AST) aspirate aminotransferase and (ALT) alanine aminotransferase as liver markers. In addition, levels of blood urea, serum creatinine were also estimated as kidney markers (Awaad et al., 2013).
# [2] = test system: absolute ethanol-induced ulcer; test: Anti-ulcerogenic activity, absolute ethanol-induced ulcer model; format: in vivo, male Wistar rats; conditions: for inhibition in vivo at 50 mg/kg / inhibition in vivo at 100 mg/kg: Rattus norvegicus, po; for inhibition in vivo at 50 mg/kg: read-out: % protection; for score: lesion score 0-5, rats
# Protocol: (§1) The biological activities of the investigational compounds (CP1-8) were investigated as follows. Swiss albino mice of both sexes (26-30 g) and male Wistar rats (180-200 g) were purchased from the animal house of King Saud University, KSA. Animals were housed in standard polypropylene cages with wire mesh top and maintained under standard conditions (temperature 23±1.0° C., humidity 55±10%, 12 h light/12 h dark cycle). They were fed a standard pellet diet with water ad libitum and were allowed to adapt to the laboratory environment for one week before experimentation.
# Evaluation of the anti-ulcerogenic activity was carried out using absolute ethanol-induced ulcer model as described by Bighettia et al. (2005). Eighteen male Wistar rats were divided into 3 groups each of 6 rats. Group 1 received the vehicle and served as control ulcer, Group 2 received ranitidine (100 mg/kg) and served as standard, and Groups 3 received the target compound at a dose of 50 mg/kg for CP1-7 and a dose of 100 mg/kg for CP8.
# Rats of all groups were fasted for 24 h then all medications were administered orally. One hour after treatment, the animals received an oral dose of absolute ethanol (1 ml/200 g) and then sacrificed one hour later, by ether inhalation, the stomachs were rapidly removed, opened along their greater curvature and gently rinsed under running tap water.
# Number of lesions in the glandular part of the stomach were measured under an illuminated magnifying microscope (10×). Long lesions were counted and their lengths were measured. Petechial lesions were counted, and then each five petechial lesions were taken as 1 mm of ulcer.
# The lesion scores in the mucosal lesions were quantified by the scoring system (0-5) 0=no damage, 1=Local edema and inflammation without ulcers; 2=One ulcer without inflammation; 3=one to two ulcers with inflammation & lesion diameter <1 cm; 4=More than two ulcers with lesion diameter 1-2 cm; 5=Sever ulceration with lesion diameter >2 cm (Morris et al., 1989).
# In order to calculate the Ulcer Index (mm), the sum of the total length of long ulcers and petechial lesions in each group of rats was divided by its number. The curative ratio was determined according to the formula: […]
# [3] = test system: acetic acid induced colitis; test: Anti-ulcerative colitis activity, acetic acid induced colitis; format: in vivo, rats; conditions: for inhibition in vivo at 50 mg/kg: Rattus norvegicus, po, 120 h, read-out: % Protection; for Wt/l: colon wet weight/length ratio; for % Protection of control colitis: Table 5, CP8 100 mg/kg; for effect versus dexamesathone in reducing all colitis parameters (in words): 50 mg/kg versus dexamesathone 0.1 mg/kg
# Protocol: as §1
# Groups of animals each of 6 rats were used for assessing the anti-ulcerative colitis activity. The first group received dexamesathone at dose 0.1 mg/kg orally to serve as standard; two other groups received water orally and served as normal control and control colitis. Other groups received the tested compounds CP 1-7 at a dose 50 mg/kg and tested compound CP 8 at a dose of 100 mg/kg. Ulcerative colitis was induced by slowly infusion of 2 mL (4%, v/v) acetic acid in saline into the colon through the catheter. Two hours after the induction of colitis, animals received the 1st dose of all medication, then all groups received medication for 5 consecutive days, two hours after the last dose, animals were sacrificed by ether anesthesia, colonic segments (8 cm in length and 3 cm proximal to the anus) were excised, opened and were used for macroscopic scoring (Awaad et al., 2013).
# The colonic lesions were assessed as follows. The colon specimens were weighted and wet weight/length ratio was calculated for all the rats. The specimens were examined under a dissecting microscope and the mucosal lesions were quantified by the scoring system (0-5) given by Awaad et al., (2013) after some modifications. The lesion scores were determined as follows: 0=no damage, 1=Local edema and inflammation without ulcers; 2=One ulcer without inflammation; 3=one to two ulcers with inflammation & lesion diameter <1 cm; 4=More than two ulcers with lesion diameter 1-2 cm; 5=Sever ulceration with lesion diameter >2 cm.
# The ulcer area was measured using plane glass square. Each cell on the glass square was 1 mm^2 in area and the number of cells was counted and the ulcer area was determined for each colon. The ulcer index was measured by summing the lesion score and the ulcer area for each colon specimen (Awaad et al, 2013).
# [4] = Table 2, protection of control ulcer, oral, CP-1-7 50 mg/kg, ranitidine 100 mg/kg
# [5] = Table 2, oral, CP-1-7 50 mg/kg, ranitidine 100 mg/kg
# [6] = Table 4, protection of control colitis, CP-1-7 50 mg/kg, dexamethasone 0.1 mg/kg
# [7] = Table 4, oral 5 days, CP-1-7 50 mg/kg, dexamethasone 0.1 mg/kg
# [8] = Table 3, protection of control ulcer, oral 100 mg/kg
# [9] = Table 7, rat serum, oral 100 mg/kg, mean ± SD, n = 10
# [10] = Table 7, rats, oral 100 mg/kg, mean ± SD, n = 10
# [11] = rats, oral 50 mg/kg (CP 1-7) or 100 mg/kg (CP 8)
# [12] = Table 6, rat serum, oral 50 mg/kg, 6 h after last dose, mean ± SD, n = 10
# [13] = Table 6, rats, oral 50 mg/kg, 6 h after last dose, mean ± SD, n = 10
smiles,measurement,setting,value
"NS(=O)(=O)c1ccc(NC(=O)CN2CCC(O)(c3ccccc3)CC2)cc1 [CP-2, 2-[(4-Hydroxy-4-phenyl)piperidinyl]-N-(4-aminosulphonylphenyl)acetamide]",melting point,,221 to 223 °C
same,ALT,"[1]; rat, in vivo, po, 50 mg/kg",39.70 ± 0.22 U/l
same,AST,"[1]; rat, in vivo, po, 50 mg/kg",66.28 ± 0.40 U/l
same,Blood Urea,"[1]; rat, in vivo, po, 50 mg/kg",52.55 ± 1.24 mg/dL
same,Serum Creatinine,"[1]; rat, in vivo, po, 50 mg/kg",0.86 ± 0.03 mg/dL
same,inhibition in vivo at 50 mg/kg,[2]; [4],71.9%
same,score,[2]; [5],3.20
same,inhibition in vivo at 50 mg/kg,[3]; [6],49.1%
same,Wt/l,[3]; [7],0.74 ± 0.02
"CNC(=C[N+](=O)[O-])NCCSCc1ccc(CN(C)C)o1 [Ranitidine, ranitidine, reference compound]",inhibition in vivo at 50 mg/kg,[2]; [4],49.2%
same,inhibition in vivo at 100 mg/kg,[2]; [8],58.8%
same,score,[2]; [5],2.20
same,score,"[2]; Table 3, oral 100 mg/kg",2.20
"NS(=O)(=O)c1ccc(NC(=O)CNc2ccccc2C(=O)O)cc1 [CP8, 2-(2-Hydroxycarbonylphenylamino)-N-(4-aminosulphonylphenyl)acetamide]",ALT,[1]; [9],39.70 ± 0.22 U/l
same,AST,[1]; [9],66.28 ± 0.40 U/l
same,Blood Urea,[1]; [10],68.60 ± 1.9 mg/dL
same,Creatinine,[1]; [10],0.86 ± 0.03 mg/dL
same,"liver functions (activity of AST and ALT), hepatotoxic manifestation (in words)",[1]; [11],didn't reveal hepatotoxic manifestation
same,nephrotoxic manifestations (in words),[1]; [11],no apparent nephrotoxic manifestations
same,liver and kidney functions versus control (in words),"[1]; rats, oral 100 mg/kg, 0.05 level of probability",not affected
same,effect versus ranitidine in reducing ulcer index and ulcer score (in words),[2]; CP8 100 mg/kg versus ranitidine 100 mg/kg,significantly more effective than the standard
same,inhibition in vivo at 100 mg/kg,[2]; [8],87.1%
same,score,"[2]; Table 3, oral 100 mg/kg",1.20
same,% Protection of control colitis,[3]; dexamethasone 0.1 mg/kg,64.2%
"COc1ccc(C2CCN(CC(=O)Nc3ccc(S(N)(=O)=O)cc3)CC2)cc1 [CP-5, 2-[4(4-Methoxyphenyl)piperidinyl]-N-(4-aminosulphonylphenyl)acetamide]",melting point,,175 to 177 °C
same,ALT,[1]; [12],36.35 ± 1.26 U/l
same,AST,[1]; [12],44.09 ± 1.25 U/l
same,Blood Urea,[1]; [13],55.92 ± 0.55 mg/dL
same,Serum Creatinine,[1]; [13],0.86 ± 0.07 mg/dL
same,inhibition in vivo at 50 mg/kg,[2]; [4],83.6%
same,score,[2]; [5],2.40
same,inhibition in vivo at 50 mg/kg,[3]; [6],22.3%
same,Wt/l,[3]; [7],0.75 ± 0.02
"NS(=O)(=O)c1ccc(NC(=O)CN2CCC(c3ccc(Cl)cc3)CC2)cc1 [CP-3, 2-[4(4-Chlorophenyl)piperidinyl]-N-(4-aminosulphonylphenyl)acetamide]",melting point,,270 to 272 °C
same,ALT,[1]; [12],36.87 ± 1.28 U/l
same,AST,[1]; [12],44.16 ± 1.57 U/l
same,Blood Urea,[1]; [13],46.02 ± 1.10 mg/dL
same,effect on serum creatinine (in words),"[1]; rats, oral 50 mg/kg",slightly elevated
same,inhibition in vivo at 50 mg/kg,[2]; [4],90.3%
same,score,[2]; [5],2.20
same,effect versus dexamesathone in reducing all colitis parameters (in words),[3],significantly more effective than dexamesathone
same,inhibition in vivo at 50 mg/kg,[3]; [6],64.2%
same,Wt/l,[3]; [7],0.64 ± 0.05
"N#CC1(c2ccccc2)CCN(CC(=O)Nc2ccc(S(N)(=O)=O)cc2)CC1 [CP-1, 2-[(4-Cyano-4-phenyl)piperidinyl]-N-(4-aminosulphonylphenyl)acetamide]",melting point,,196 to 198 °C
same,ALT,[1]; [12],35.77 ± 1.60 U/l
same,AST,[1]; [12],44.43 ± 1.57 U/l
same,Serum Creatinine,[1]; [13],0.88 ± 0.03 mg/dL
same,effect on blood urea concentration (in words),"[1]; rats, oral 50 mg/kg",slightly elevate
same,inhibition in vivo at 50 mg/kg,[2],55.5%
same,score,[2]; [5],3.20
same,inhibition in vivo at 50 mg/kg,[3],31.7%
same,Wt/l,[3]; [7],0.79 ± 0.08
"NS(=O)(=O)c1ccc(NC(=O)CN2CCC(N3CCCCC3)CC2)cc1 [CP-4, 2-[4-(1-Piperidino)piperidinyl]-N-(4-aminosulphonylphenyl)acetamide]",melting point,,215 to 217 °C
same,ALT,[1]; [12],36.87 ± 1.28 U/l
same,AST,[1]; [12],44.16 ± 1.57 U/l
same,Blood Urea,[1]; [13],47.96 ± 0.84 mg/dL
same,effect on serum creatinine (in words),"[1]; rats, oral 50 mg/kg",slightly elevated
same,inhibition in vivo at 50 mg/kg,[2]; [4],97.7%
same,score,[2]; [5],2.00
same,inhibition in vivo at 50 mg/kg,[3]; [6],25.3%
same,Wt/l,[3]; [7],0.84 ± 0.02
same,score,"[3]; Table 4, lesion score 0-5, oral 5 days, CP-1-7 50 mg/kg, dexamethasone 0.1 mg/kg",3.00 ± 0.63
"C[C@@H]1C[C@H]2[C@@H]3CCC4=CC(=O)C=C[C@]4(C)[C@@]3(F)[C@@H](O)C[C@]2(C)[C@@]1(O)C(=O)CO [Dexamethasone, reference compound]",inhibition in vivo at 50 mg/kg,[3]; [6],59.3%
same,Wt/l,[3]; [7],0.52 ± 0.07
same,% Protection of control colitis,[3]; dexamethasone 0.1 mg/kg,60%
"Cc1cc(NCC(=O)Nc2ccc(S(N)(=O)=O)cc2)c2ccccc2n1 [CP-7, 2-(2-Methylquinolin-4-ylamino)-N-(4-aminosulphonylphenyl)acetamide]",melting point,,> 300 °C
same,ALT,[1]; [12],36.33 ± 1.35 U/l
same,AST,[1]; [12],46.16 ± 1.48 U/l
same,Blood Urea,[1]; [13],53.00 ± 0.14 mg/dL
same,Serum Creatinine,[1]; [13],0.85 ± 0.09 mg/dL
same,inhibition in vivo at 50 mg/kg,[2]; [4],64.1%
same,score,[2]; [5],3.60
same,effect versus dexamesathone in reducing all colitis parameters (in words),[3],significantly more effective than dexamesathone
same,inhibition in vivo at 50 mg/kg,[3]; [6],66.8%
same,Wt/l,[3]; [7],0.49 ± 0.02
